From ChEMBL document CHEMBL3046635, “Synthesis and Herbicidal Activity of New Pyrazole-4-carboxamide Derivatives” (J Pestic Sci, 2004)
Active and inactive are the calls of the source.

What was measured:
Rotala indica [1] = experiment: Pre-emergence herbicidal activity against Rotala indica at 2000 g a.i/ha measured after 14 days; assay type: functional, organism-based
Lindernia procumbens [2] = experiment: Pre-emergence herbicidal activity against Lindernia procumbens assessed as bleaching of stem/leaf parts; assay type: functional, organism-based
Rotala indica [3] = experiment: Pre-emergence herbicidal activity against Rotala indica assessed as bleaching of stem/leaf parts; assay type: functional, organism-based
Ammannia multiflora [4] = experiment: Pre-emergence herbicidal activity against Ammannia multiflora at 2000 g a.i/ha measured after 14 days; assay type: functional, organism-based
Cyperus difformis [5] = experiment: Post-emergence herbicidal activity against Cyperus difformis assessed as bleaching of stem/leaf parts; assay type: functional, organism-based; also: test concentration or dose not given here
Ammannia multiflora [6] = experiment: Post-emergence herbicidal activity against Ammannia multiflora assessed as bleaching of stem/leaf parts; assay type: functional, organism-based; also: test concentration or dose not given here
Lindernia procumbens [7] = experiment: Pre-emergence herbicidal activity against Lindernia procumbens at 2000 g a.i/ha measured after 14 days; assay type: functional, organism-based
Elatine triandra [8] = experiment: Pre-emergence herbicidal activity against Elatine triandra at 2000 g a.i/ha measured after 14 days; assay type: functional, organism-based
Cyperus difformis [9] = experiment: Pre-emergence herbicidal activity against Cyperus difformis assessed as bleaching of stem/leaf parts; assay type: functional, organism-based
Echinochloa oryzicola [10] = experiment: Pre-emergence herbicidal activity against Echinochloa oryzicola at 2000 g a.i/ha measured after 14 days; assay type: functional, organism-based
Eleocharis acicularis [11] = experiment: Pre-emergence herbicidal activity against Eleocharis acicularis at 2000 g a.i/ha measured after 14 days; assay type: functional, organism-based
[12] = tested on: Schoenoplectiella juncoides; experiment: Pre-emergence herbicidal activity against Schoenoplectiella juncoides at 2000 g a.i/ha measured after 14 days; assay type: functional, organism-based
Echinochloa oryzicola [13] = experiment: Pre-emergence herbicidal activity against Echinochloa oryzicola assessed as bleaching of stem/leaf parts; assay type: functional, organism-based
[14] = tested on: Schoenoplectiella juncoides; experiment: Post-emergence herbicidal activity against Schoenoplectiella juncoides assessed as bleaching of stem/leaf parts; assay type: functional, organism-based; also: test concentration or dose not given here
Pontederia vaginalis [15] = experiment: Pre-emergence herbicidal activity against Monochoria vaginalis at 2000 g a.i/ha measured after 14 days; assay type: functional, organism-based
Elatine triandra [16] = experiment: Post-emergence herbicidal activity against Elatine triandra assessed as bleaching of stem/leaf parts; assay type: functional, organism-based; also: test concentration or dose not given here
Ammannia multiflora [17] = experiment: Pre-emergence herbicidal activity against Ammannia multiflora assessed as bleaching of stem/leaf parts; assay type: functional, organism-based
Oryza sativa = experiment: Phytotoxicity against Oryza sativa cv. Koshihikari (rice) at 2000 g a.i/ha measured after 14 days; assay type: organism-based; conditions: in vivo, 336 h
Pontederia vaginalis [18] = experiment: Post-emergence herbicidal activity against Monochoria vaginalis assessed as bleaching of stem/leaf parts; assay type: functional, organism-based; also: test concentration or dose not given here
Cyperus difformis [19] = experiment: Pre-emergence herbicidal activity against Cyperus difformis at 2000 g a.i/ha measured after 14 days; assay type: functional, organism-based
Lindernia procumbens [20] = experiment: Post-emergence herbicidal activity against Lindernia procumbens assessed as bleaching of stem/leaf parts; assay type: functional, organism-based; also: test concentration or dose not given here
[21] = tested on: Schoenoplectiella juncoides; experiment: Pre-emergence herbicidal activity against Schoenoplectiella juncoides assessed as bleaching of stem/leaf parts; assay type: functional, organism-based
Elatine triandra [22] = experiment: Pre-emergence herbicidal activity against Elatine triandra assessed as bleaching of stem/leaf parts; assay type: functional, organism-based
Eleocharis acicularis [23] = experiment: Post-emergence herbicidal activity against Eleocharis acicularis assessed as bleaching of stem/leaf parts; assay type: functional, organism-based; also: test concentration or dose not given here
Pontederia vaginalis [24] = experiment: Pre-emergence herbicidal activity against Monochoria vaginalis assessed as bleaching of stem/leaf parts; assay type: functional, organism-based
Eleocharis acicularis [25] = experiment: Pre-emergence herbicidal activity against Eleocharis acicularis assessed as bleaching of stem/leaf parts; assay type: functional, organism-based
Echinochloa oryzicola [26] = experiment: Post-emergence herbicidal activity against Echinochloa oryzicola assessed as bleaching of stem/leaf parts; assay type: functional, organism-based; also: test concentration or dose not given here
Rotala indica [27] = experiment: Post-emergence herbicidal activity against Rotala indica assessed as bleaching of stem/leaf parts; assay type: functional, organism-based; also: test concentration or dose not given here

Structure (SMILES) | Activity (Rotala indica [1]) | Activity (Lindernia procumbens [2]) | Activity (Rotala indica [3]) | Activity (Ammannia multiflora [4]) | Activity (Cyperus difformis [5]) | Activity (Ammannia multiflora [6]) | Activity (Lindernia procumbens [7]) | Activity (Elatine triandra [8]) | Activity (Cyperus difformis [9]) | Activity (Echinochloa oryzicola [10]) | Activity (Eleocharis acicularis [11]) | Activity [12] | Activity (Echinochloa oryzicola [13]) | Activity [14] | Activity (Pontederia vaginalis [15]) | Activity (Elatine triandra [16]) | Activity (Ammannia multiflora [17]) | Activity (Oryza sativa) | Activity (Pontederia vaginalis [18]) | Activity (Cyperus difformis [19]) | further results
C#CCOc1nn(C)cc1C(=O)N(CC)CCC | inactive | Active | Active | inactive | Active | Active | inactive | inactive | Active | inactive | inactive | inactive | Active | Active | inactive | Active | Active | Non-toxic | Active | inactive | Activity (Lindernia procumbens [20]): Active; Activity [21]: Active; Activity (Elatine triandra [22]): Active; Activity (Eleocharis acicularis [23]): Active; Activity (Pontederia vaginalis [24]): Active; Activity (Eleocharis acicularis [25]): Active; Activity (Echinochloa oryzicola [26]): Active; Activity (Rotala indica [27]): Active
CCCN(CC)C(=O)c1cn(C)nc1OCc1cc(Br)cc(Br)c1 | inactive | Active | Active | inactive | Active | Active | inactive | inactive | Active | inactive | inactive | inactive | Active | Active | inactive | Active | Active | Non-toxic | Active | inactive | Activity (Lindernia procumbens [20]): Active; Activity [21]: Active; Activity (Elatine triandra [22]): Active; Activity (Eleocharis acicularis [23]): Active; Activity (Pontederia vaginalis [24]): Active; Activity (Eleocharis acicularis [25]): Active; Activity (Echinochloa oryzicola [26]): Active; Activity (Rotala indica [27]): Active
CCCN(CC)C(=O)c1cn(C)nc1OCc1cc(C(F)(F)F)cc(C(F)(F)F)c1 | inactive | Active | Active | inactive | Active | Active | inactive | inactive | Active | inactive | inactive | inactive | Active | Active | inactive | Active | Active | Non-toxic | Active | inactive | Activity (Lindernia procumbens [20]): Active; Activity [21]: Active; Activity (Elatine triandra [22]): Active; Activity (Eleocharis acicularis [23]): Active; Activity (Pontederia vaginalis [24]): Active; Activity (Eleocharis acicularis [25]): Active; Activity (Echinochloa oryzicola [26]): Active; Activity (Rotala indica [27]): Active
CCCN(CC)C(=O)c1cn(C)nc1OCc1cc(F)cc(F)c1 | Active | Active | Active | Active | Active | Active | Active | Active | Active | Active | inactive | Active | Active | Active | Active | Active | Active | Non-toxic | Active | Active | Activity (Lindernia procumbens [20]): Active; Activity [21]: Active; Activity (Elatine triandra [22]): Active; Activity (Eleocharis acicularis [23]): Active; Activity (Pontederia vaginalis [24]): Active; Activity (Eleocharis acicularis [25]): Active; Activity (Echinochloa oryzicola [26]): Active; Activity (Rotala indica [27]): Active
CCCN(CC)C(=O)c1cn(C)nc1OCc1cccc(F)c1 | Active | Active | Active | Active | Active | Active | Active | Active | Active | Active | Active | Active | Active | Active | Active | Active | Active | Non-toxic | Active | Active | Activity (Lindernia procumbens [20]): Active; Activity [21]: Active; Activity (Elatine triandra [22]): Active; Activity (Eleocharis acicularis [23]): Active; Activity (Pontederia vaginalis [24]): Active; Activity (Eleocharis acicularis [25]): Active; Activity (Echinochloa oryzicola [26]): Active; Activity (Rotala indica [27]): Active
CCCN(CC)C(=O)c1cn(C)nc1OCc1cccc(C(F)(F)F)c1 | inactive | Active | Active | inactive | Active | Active | inactive | inactive | Active | Active | Active | Active | Active | Active | Active | Active | Active | Toxic | Active | Active | Activity (Lindernia procumbens [20]): Active; Activity [21]: Active; Activity (Elatine triandra [22]): Active; Activity (Eleocharis acicularis [23]): Active; Activity (Pontederia vaginalis [24]): Active; Activity (Eleocharis acicularis [25]): Active; Activity (Echinochloa oryzicola [26]): Active; Activity (Rotala indica [27]): Active
CCCN(CC)C(=O)c1cn(C)nc1OCc1ccccc1C(F)(F)F | inactive | Active | Active | inactive | Active | Active | inactive | inactive | Active | inactive | inactive | inactive | Active | Active | inactive | Active | Active | Non-toxic | Active | inactive | Activity (Lindernia procumbens [20]): Active; Activity [21]: Active; Activity (Elatine triandra [22]): Active; Activity (Eleocharis acicularis [23]): Active; Activity (Pontederia vaginalis [24]): Active; Activity (Eleocharis acicularis [25]): Active; Activity (Echinochloa oryzicola [26]): Active; Activity (Rotala indica [27]): Active
CCCN(CC)C(=O)c1cn(C)nc1OCc1cccc(Br)c1 | inactive | Active | Active | inactive | Active | Active | inactive | inactive | Active | Active | Active | Active | Active | Active | Active | Active | Active | Non-toxic | Active | inactive | Activity (Lindernia procumbens [20]): Active; Activity [21]: Active; Activity (Elatine triandra [22]): Active; Activity (Eleocharis acicularis [23]): Active; Activity (Pontederia vaginalis [24]): Active; Activity (Eleocharis acicularis [25]): Active; Activity (Echinochloa oryzicola [26]): Active; Activity (Rotala indica [27]): Active
CCCN(CC)C(=O)c1cn(C)nc1OCc1ccc(SC)cc1 | inactive | Active | Active | inactive | Active | Active | inactive | inactive | Active | inactive | inactive | inactive | Active | Active | inactive | Active | Active | Non-toxic | Active | inactive | Activity (Lindernia procumbens [20]): Active; Activity [21]: Active; Activity (Elatine triandra [22]): Active; Activity (Eleocharis acicularis [23]): Active; Activity (Pontederia vaginalis [24]): Active; Activity (Eleocharis acicularis [25]): Active; Activity (Echinochloa oryzicola [26]): Active; Activity (Rotala indica [27]): Active
